{
  "source": "paper PMC8536575",
  "about": "“Acute effects of the imidacloprid metabolite desnitro-imidacloprid on human nACh receptors relevant for neuronal signaling” (Archives of Toxicology, 2021)",
  "key": {"nAChRs on SH-SY5Y cells": {"tested_on": "nAChRs on SH-SY5Y cells", "experiment": "Desensitization of the nicotine response of SH-SY5Y cells", "type": "cell-based, human", "conditions": "pretreatment 20 min, nicotine 10 µM, PNU 10 µM", "procedure": "To measure acute changes in the average [Ca^2+]i of a population, SH-SY5Y cells were examined in the 96-well plate fluorescence reader FlexStation II (Molecular Devices) using the fluorophore Fura-2AM. SH-SY5Y (35,000 cells/well; 109,375 cells/cm^2) were seeded in maintenance culture medium in black 96-well plates with clear bottom (Corning, #3603). 24 h after seeding, maintenance medium was replaced with differentiation medium. […] The fluorescence was assessed at 37 °C in the fluorescence plate reader (FlexStation II; Molecular Devices) at two different excitation wavelengths, 340 nm for Ca^2+-bound Fura-2 and 380 nm for free Fura-2, and at 510 nm emission, every 3.1 s using bottom read settings. After 26–29 s of initial baseline recording of the fluorescence intensity, 10 µl of the compound dilution (10 times higher than the final concentration to the cells) was transferred automatically by the FlexStation II (“Flex mode”) to the cell plate wells (five wells per concentration) and the fluorescence intensity was monitored for another 150 s. The ratio of fluorescence intensity at 340/380 nm was determined and the mean values from the baseline recording before the addition of test compounds was set to zero. The acute change in the Ca^2+ influx after the addition of the compounds was quantified as the area under the curve (AUC) using the SoftMax Pro 4.8 software (Molecular Devices). […]"}, "human α4β2 (HS) nAChR": {"biological_target": "T1, human α4β2 (HS) nAChR (Homo sapiens, UniProt P17787+P43681)", "T1 construct": "expressed in transfected cells; host or cells: Xenopus laevis oocytes (EcoCyte Bioscience), mRNA injection, 3 ng α4 and 30 ng β2", "T1 sequence (P43681 27-627)": "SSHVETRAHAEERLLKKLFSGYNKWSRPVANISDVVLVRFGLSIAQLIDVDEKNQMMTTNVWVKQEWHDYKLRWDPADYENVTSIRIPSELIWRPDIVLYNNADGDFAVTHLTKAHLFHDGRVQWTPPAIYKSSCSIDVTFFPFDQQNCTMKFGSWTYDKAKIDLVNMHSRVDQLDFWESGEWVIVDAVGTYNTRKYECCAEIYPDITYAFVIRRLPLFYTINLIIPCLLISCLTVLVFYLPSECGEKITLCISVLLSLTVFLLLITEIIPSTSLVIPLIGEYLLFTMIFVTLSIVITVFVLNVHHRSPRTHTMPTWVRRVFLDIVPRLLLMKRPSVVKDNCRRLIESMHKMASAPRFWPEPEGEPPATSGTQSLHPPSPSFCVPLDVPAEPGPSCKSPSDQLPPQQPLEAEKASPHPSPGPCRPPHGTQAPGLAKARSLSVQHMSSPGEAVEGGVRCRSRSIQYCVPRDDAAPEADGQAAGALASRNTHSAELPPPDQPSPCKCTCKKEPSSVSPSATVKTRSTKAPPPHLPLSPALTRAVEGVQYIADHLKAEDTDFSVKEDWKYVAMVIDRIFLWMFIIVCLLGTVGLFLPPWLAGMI", "T1 sequence (P17787 26-502)": "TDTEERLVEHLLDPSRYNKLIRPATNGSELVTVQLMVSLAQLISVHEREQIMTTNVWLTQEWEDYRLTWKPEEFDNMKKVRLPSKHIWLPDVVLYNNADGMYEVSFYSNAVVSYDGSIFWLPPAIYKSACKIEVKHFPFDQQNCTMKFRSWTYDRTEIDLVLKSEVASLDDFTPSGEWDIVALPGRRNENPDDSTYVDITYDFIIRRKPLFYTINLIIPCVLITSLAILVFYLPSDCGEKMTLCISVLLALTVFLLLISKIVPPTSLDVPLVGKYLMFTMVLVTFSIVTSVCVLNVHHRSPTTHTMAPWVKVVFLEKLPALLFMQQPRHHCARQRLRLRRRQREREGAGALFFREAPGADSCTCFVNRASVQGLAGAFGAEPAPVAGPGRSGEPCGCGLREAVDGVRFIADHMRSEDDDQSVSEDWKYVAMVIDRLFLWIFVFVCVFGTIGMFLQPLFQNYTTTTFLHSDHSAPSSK", "experiment": "Two-electrode voltage-clamp recordings, Xenopus laevis oocytes expressing human α4β2 (HS) nAChR", "type": "cell-based"}, "human α4β2 (LS) nAChR": {"biological_target": "T2, human α4β2 (LS) nAChR (Homo sapiens, UniProt P17787+P43681)", "T2 construct": "expressed in transfected cells; host or cells: Xenopus laevis oocytes, mRNA injection, 10 ng α4 and 1 ng β2", "T2 sequence (P43681 27-627)": "as the sequence (P43681 27-627) above", "T2 sequence (P17787 26-502)": "as the sequence (P17787 26-502) above", "experiment": "Two-electrode voltage-clamp recordings, Xenopus laevis oocytes expressing human α4β2 (LS) nAChR", "type": "cell-based", "excerpt": "The human α7 nAChR subunit was cloned in the pCDNA3.1 vector.\nFor the generation of the mRNA for injection, the plasmid DNAs of α3, α4, β2, and β4 were linearized with the NotI restriction endonuclease (New England Biolabs) and the plasmid DNA of α7 was linearized with the XbaI restriction endonuclease (New England Biolabs). The mRNAs of α3, α4, β2, and β4 were generated by in vitro transcription using the mMESSAGE mMACHINE SP6 Transcription Kit (Invitrogen). For the generation of α7 mRNA, the mMESSAGE mMACHINE T7 Transcription Kit (Invitrogen) was used. For the separation of the DNA and mRNA, a phenol–chloroform extraction (Chomczynski and Sacchi [2006]) was performed. The mRNA was then obtained by ethanol precipitation from the aqueous phase; for quantification, the BioPhotometer (Eppendorf) was used.\nThe recordings of human α7, α3β4, α4β2, and α4β4 nAChRs expressed in Xenopus laevis oocytes (EcoCyte Bioscience) were performed in two-electrode voltage-clamp mode using the Roboocyte2 system and the corresponding software (version 1.4.1; Multi Channel Systems MCS). Prior to the recordings, the oocytes were maintained at 19 °C in modified Barth’s solution containing [mM]: 88 NaCl, 1 KCl, 0.33 Ca(NO3)2, 0.82 MgSO4, 2.4 NaHCO3, 0.41 CaCl2, 5 Tris, 100 U/ml penicillin, 100 µg/ml streptomycin, pH 7.4.\nTo express human α7 nAChR, we injected 50 nl of mRNA solution (30 ng mRNA) per oocyte, using the Roboinject and the corresponding software (version 1.2.1; Multi Channel Systems MCS). […]\nThe baseline correction of voltage-clamp oocyte recordings was performed with the Roboocyte2 + software (version 1.4.3; Multi Channel Systems MCS, Germany). The maximal current influx and further analysis were executed in scripts written in R. In the antagonist experiments with oocytes, the maximal inward current was determined for the last response of each period (control, three antagonist concentrations, and washout)."}},
  "data": [
    {"smiles": "NC1=NCCN1Cc1ccc(Cl)nc1", "note": "[DN-IMI, desnitro-imidacloprid]", "values": [
      {"measurement": "effect of pretreatment on the response to nicotine in SH-SY5Y", "setting": "nAChRs on SH-SY5Y cells", "value": "reduced/abolished the response to nicotine in the submicromolar range"},
      {"measurement": "EC50", "setting": "human α4β2 (HS) nAChR", "value": 501, "unit": "nM"},
      {"measurement": "fold lower concentrations activating α4β2 (HS) than α7 and α3β4 nAChRs", "setting": "human α4β2 (HS) nAChR", "value": 20, "unit": "fold"},
      {"measurement": "higher potency on α4β2 (HS) nAChR than on other subtypes", "setting": "human α4β2 (HS) nAChR; comparison of EC25 values, α4β2 (HS) vs α7 and α3β4", "value": "> 1", "unit": "log-step"},
      {"measurement": "absolute EC25", "setting": "human α4β2 (HS) nAChR; from curve-fitted concentration–response data", "value": 0.33, "unit": "µM"},
      {"measurement": "estimated maximum amplitude, % of nicotine's", "setting": "human α4β2 (HS) nAChR; normalized to nicotine (10 µM)", "value": 64, "unit": "%"},
      {"measurement": "estimated maximum", "setting": "human α4β2 (LS) nAChR; normalized to nicotine (100 µM)", "value": "~ 1.22"},
      {"measurement": "EC50", "setting": "human α4β2 (LS) nAChR; read-out: relative pEC50 (inward current amplitude) (converted)", "value": 5.01, "unit": "µM"}
    ]}
  ]
}
